Laboratory results reported in PubChem BioAssay AID1963838 (Molecular Pharmacology Branch, DTP, NCI, 2024).

System: 855422-203-R-J1-PDC complex spheroid viability
Assay: Anticancer human tumor 855422-203-R-J1-PDC patient-derived bladder carcinoma cell line growth inhibition [POLQ]
Conditions: for IC50: curve of first compound; for viability, T/C: stronger effect = lower value
How it was run: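 PDC + HUVEC + MSC complex spheroids; POLQ inhibitors ± partner drugs; top conc. at/near clinical Cmax, else 10 microM (SN-38 1 microM), half-log dilutions; 37 degrees C, 5% CO2.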
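Also: spheroids exposed to compounds for seven days before readout.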

CC1COCCN1c1cc(C2(O)CC3CCC(C2)O3)c2cnn(-c3ccn[nH]3)c2n1 (configuration not stated) + Nc1ccc(C#CCN(C(=O)Cc2ncc(C(F)(F)F)cc2C(F)(F)F)c2ccc(F)cc2)nn1 was tested, and the IC50 (second compound 0.0316 µM) was 217 nM, the IC50 (second compound 0.1 µM) was 194 nM and the IC50 (second compound 0.316 µM) was 174 nM. It also gave an IC50 (second compound 1 µM) of 170 nM, an IC50 (second compound 3.16 µM) of 147 nM and an IC50 (second compound 10 µM) of 98.9 nM. It also gave a viability, T/C (second compound 0.0316 µM, first compound 0.0316 µM) of 111%, a viability, T/C (second compound 0.0316 µM, first compound 0.1 µM) of 105% and a viability, T/C (second compound 0.0316 µM, first compound 0.316 µM) of 23.2%. For the same compound, the viability, T/C (second compound 0.0316 µM, first compound 1 µM) was 12.7%, the viability, T/C (second compound 0.0316 µM, first compound 3.16 µM) was 11.1% and the viability, T/C (second compound 0.0316 µM, first compound 10 µM) was 7.13%. It also gave a viability, T/C (second compound 0.1 µM, first compound 0.0316 µM) of 139%, a viability, T/C (second compound 0.1 µM, first compound 0.1 µM) of 84% and a viability, T/C (second compound 0.1 µM, first compound 0.316 µM) of 24.7%. It also gave a viability, T/C (second compound 0.1 µM, first compound 1 µM) of 12%, a viability, T/C (second compound 0.1 µM, first compound 3.16 µM) of 11.2% and a viability, T/C (second compound 0.1 µM, first compound 10 µM) of 5.82%. It also gave a viability, T/C (second compound 0.316 µM, first compound 0.0316 µM) of 117%, a viability, T/C (second compound 0.316 µM, first compound 0.1 µM) of 78.9% and a viability, T/C (second compound 0.316 µM, first compound 0.316 µM) of 18.5%. The viability, T/C (second compound 0.316 µM, first compound 1 µM) was 13.2%, the viability, T/C (second compound 0.316 µM, first compound 3.16 µM) was 12% and the viability, T/C (second compound 0.316 µM, first compound 10 µM) was 5.73%. The viability, T/C (second compound 1 µM, first compound 0.0316 µM) was 104%, the viability, T/C (second compound 1 µM, first compound 0.1 µM) was 72.7% and the viability, T/C (second compound 1 µM, first compound 0.316 µM) was 23.1%. For the same compound, the viability, T/C (second compound 1 µM, first compound 1 µM) was 10.9%, the viability, T/C (second compound 1 µM, first compound 3.16 µM) was 10.2% and the viability, T/C (second compound 1 µM, first compound 10 µM) was 5.09%. It also gave a viability, T/C (second compound 3.16 µM, first compound 0.0316 µM) of 107%, a viability, T/C (second compound 3.16 µM, first compound 0.1 µM) of 69% and a viability, T/C (second compound 3.16 µM, first compound 0.316 µM) of 12.6%. For the same compound, the viability, T/C (second compound 3.16 µM, first compound 1 µM) was 14.6%, the viability, T/C (second compound 3.16 µM, first compound 3.16 µM) was 9.39% and the viability, T/C (second compound 3.16 µM, first compound 10 µM) was 5.42%. The viability, T/C (second compound 10 µM, first compound 0.0316 µM) was 151%, the viability, T/C (second compound 10 µM, first compound 0.1 µM) was 48.6% and the viability, T/C (second compound 10 µM, first compound 0.316 µM) was 17%. For the same compound, the viability, T/C (second compound 10 µM, first compound 1 µM) was 11.1%, the viability, T/C (second compound 10 µM, first compound 3.16 µM) was 9.46% and the viability, T/C (second compound 10 µM, first compound 10 µM) was 4.88%.
